Molecules are shown by their SMILES.

Usually IC50 stands for the concentration that inhibits the measured activity by half. Low values mean inhibition by little substance, high ones a need for much substance.

The subject of assay [1] is HL60 human acute myeloid leukaemia cells in SCID immune-deficient mouse. The experiment in a line: leukaemia mouse model (FIG. 7). Type of assay: in vivo. Conditions: 3 mg/kg intravenously, 10 occasions. The protocol: The effect on leukaemia was studied on SCID immune-deficient mouse model inoculated intravenously with HL60 human acute myeloid leukaemia cells (ATCC) (1 million cells/animal). Two groups were formed from randomly selected mice, with 9 animals in each group. Group1: control group, it was only administered a carrier (0.1 mL, 0.9% NaCl solution) intravenously; group 2: group treated with compound 60, it was administered 3 mg/kg of compound 60 in PEG100:Solutol:PBS (1:4:15 vol ratio), intravenously.
The treatments were performed from the third day, on five consecutive occasions per week, for 2 weeks, on a total of 10 occasions. As time went on, every day we determined the number of surviving animals and represented it in percentage per group as compared to the total initial number of animals (FIG. 7). It can be seen that the 3 mg/kg dose of compound 60 administered intravenously was effective, the treatment with compound 60 increased the LD50 (from day 26 to day 42) and the survival rate of the animals.

Assay [2] has as its system 4T1 mouse cells inoculated into the mammary gland of BalbC mouse. The experiment in a line: mammary carcinoma mouse model (FIG. 6). Type of assay: in vivo. The note with it: 3 mg/kg intravenously, every other day from day 16, 6 occasions, compared to vehicle. As to the method:
The effect on mammary carcinoma was studied on BalbC mouse model inoculated subcutaneously into the mammary gland with 4T1 mouse cells (ATCC) (100,000 cells/animal). Two groups were formed from randomly selected mice, with 8 animals in both groups. Group 1: control group, it was only administered a carrier (0.1 mL, 0.9% NaCl solution) intravenously; group 2: group treated with compound 83, it was administered 3 mg/kg of compound 83 in PEG100:Solutol:PBS (1:4:15 vol ratio), intravenously after the tumor reached 300 mm^3 (day 16). The treatments were performed from the sixteenth day, every other day, for a total of 6 occasions. Starting from the 16th day on every day the size of the increasing tumours was determined in the case of each animal, and the group average was represented per group (FIG. 6). The standard deviation was determined in SEM. It can be seen that the treatment with compound 83 reduced the size of the increasing mammary tumour.

Assay [3] has as its system CD33 expression in HL-60 cells. In words: quantitative real time PCR of stem cell marker (FIG. 3A). Format: cell-based, human. The note with it: HL-60, 24 h after treatment, normalized to ACTB. The protocol:
(§1) HL-60 cells (10×10^6) were plated in 100 mm tissue culture dishes (Corning Life Sciences) in RPMI 10% FCS. Cells were treated in 10 mL total volume with the compound described in Example 83 24 h after treatment, nucleic acid preparation was done by using the Bioneer RNA purification kit (Bioneer, Viral RNA extraction kit, Daejeon, South Korea) according to an already published protocol (Szebeni et al. 2017a). The quality and quantity of the isolated RNA were measured with NanoDrop1000 Version 3.8.1. (Thermo Fisher Scientific). Reverse transcription from 3 μg of total RNA was performed with the High-Capacity cDNA Archive Kit (Applied Biosystems, Foster City, Calif., USA) in a total volume of 30 μL according to the manufacturer's protocol. Quantitative-real time PCR was carried out using gene specific primers for CD33 (primer sequences: forward 5′ […] 3′, reverse 5′ […] 3′) and CD34, (primer sequences: forward 5′ gcgctttgcttgctgagt 3′, reverse 5′ […] 3′) using Sybr Green detection on a LightCycler Nano instrument (Roche, Hungary). Relative gene expression data was normalized to ACTB (beta actin, primer sequences: forward 5′ attggcaatgagcggttc 3′, reverse 5′ cgtggatgccacaggact 3′) expression.
(Quantitative PCR measures a nucleic acid by following its amplification.)

The test system of assay [4] is CD34 expression in HL-60 cells. The assay is described as above. The note with it: HL-60, 24 h after treatment, normalized to ACTB. Type of assay: cell-based, human. As to the method: as §1
Assay [5] relates to HTT199 human melanoma cells in SCID immune-deficient mouse. The experiment in a line: melanoma mouse model (FIG. 8). Format: in vivo. Conditions: 3 mg/kg intravenously, 10 occasions. As to the method: The effect on melanoma was studied on SCID immune-deficient mouse model inoculated in the spleen with HTT199 human melanoma cells (ATCC) (1 million cells/animal). Two groups were formed from randomly selected mice, with 10 animals in each group. Group 1: control group, it was only administered a carrier (0.1 mL, 0.9% NaCl solution) intravenously; group 2: group treated with compound 83, it was administered 3 mg/kg of compound 83 in PEG100:Solutol:PBS (1:4:15 vol ratio), intravenously.
The treatments were performed from the third day, on five consecutive occasions per week, for 2 weeks, on a total of 10 occasions. As time went on, every day we determined the number of surviving animals and represented it in percentage per group as compared to the total initial number of animals (FIG. 8). It can be seen that the 3 mg/kg dose of compound 83 administered intravenously was effective, the treatment with compound 83 increased the LD50 (from day 33 to day 38) and the survival rate of the animals.

The test system of the next assay is MOLT4 (human leukemia). In words: viability assay (Table 2). Format: cell-based. Conditions: MOLT-4. The protocol: (§2) For viability assays cells were seeded in 96 well plates (MCF7 and 4T1: 6000, HL60: 120.000 cells/well) and incubated overnight. Compounds were dissolved in dimethyl sulfoxide (DMSO). Cells were treated with an increasing concentration of compounds having the general formula (I.) (156 nM-100 μM). Cell viability was determined after 72h incubation. Resazurin reagent (Sigma-Aldrich) was dissolved in PBS (pH 7.4) at 0.15 mg/ml concentration, sterile filtered (0.22 μm, Merck Millipore) and aliquoted at −20° C. Resazurin reagent (Sigma-Aldrich) was added at a final concentration of 25 μg/ml. After 2 hours incubation at 37° C. 5% CO2 fluorescence (530 nm excitation/580 nm emission) was recorded on a multimode microplate reader (Cytofluor4000, PerSeptive Biosytems). Viability was calculated with relation to untreated control cells and blank wells containing media without cells. IC50 values (50% inhibiting concentration) were calculated by GraphPad Prism® 5 (La Jolla, Calif., USA).
(§3) HT168 (human melanoma), HT199 (human melanoma), HT29 (human colorectal adenocarcinoma), MOLT4 (human leukemia) and U937 (human lymphoma) cells were maintained in Roswell Park Memorial Institute 1640 medium (RPMI-1640) 10% FCS. SKOV-3 cells were maintained in Dulbecco's Modified Eagle Medium/McCoy's medium (DMEM/McCoy) 10% FCS.
(§4) Media were supplemented with 2 mM GlutaMAX, and 100 U/mL penicillin, 100 μg/mL streptomycin (Life Technologies, Carlsbad, Calif., USA). Cell cultures were maintained at 37° C. in a humidified incubator in an atmosphere of 5% CO2 (Sanyo, Japan).
(§5) Viability assays were performed as described in Example 102.

A further assay concerns U937 (human lymphoma). The experiment in a line: viability assay (Table 2). Type of assay: cell-based. Conditions: U-937. The protocol: as §2, §3, §4, §5
Assay [6] relates to SKOV-3 cells (ovarian adenocarcinoma). The experiment in a line: viability assay (Table 2). Type of assay: cell-based. Conditions: Homo sapiens, SK-OV-3. As to the method: as §2, §3, §4, §5

As to `CC(C)(C)Nc1c(C(C)(C)C)[nH]c2c(C(=O)Nc3ccc(F)cc3)cnn12` [Example 60, 2-(Tert-butyl)-N-(4-fluorophenyl)-3-((tert-butyl-2-yl)amino)-1H-imidazo[1,2-b]pyrazole-7-carboxamide], the “survival rate of the animals” value in assay [1] is given as “increased”. This compound showed a median survival time in assay [1] (control day 26) of 42 days.
For `CC(C)(C)Nc1c(C(C)(C)C)[nH]c2c(C(=O)Nc3ccc(N)cc3)cnn12` [Example 83, N-(4-Aminophenyl)-2-(tert-butyl)-3-(tert-butylamino)-1H-imidazo[1,2-b]pyrazole-7-carboxamide], in assay [2], the “size of the increasing mammary tumour” value is “reduced”. The “expression of haematopoietic stem cell marker CD33” value in assay [3] is “decreased”. Moreover, the “expression of haematopoietic stem cell marker CD34” value in assay [4] is “decreased”. Besides, the “survival rate of the animals” value in assay [5] is “increased”. Moreover, the median survival time in assay [5] (control day 33) was found to be 38 days. The IC50 with MOLT4 (human leukemia) was determined as 150 nM; in the assay on U937 (human lymphoma), 250 nM; in assay [6], 150 nM.
